# Source: PMC8957246, “Synthesis and diverse biological activity profile of triethylammonium isatin-3-hydrazones” (ADMET & DMPK, 2022)
# Read-outs that look alike come from different tables or passages of the source. Marks after values point to notes of the source that are not given here.
# Columns and labels:
# [1] = test system: Xanthomonas campestris B-610; experiment: Bactericidal activity, agar diffusion, X. campestris; format: cell-based; settings: Xanthomonas campestris, B610, 2 mM/L
# In short: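 Agar diffusion: bacterial lawns on BP agar (GYCa for X. campestris), pH 7.2-7.4, with compound solution (150 μl; stock 2 mmol/l) placed in 6-mm wells. Growth inhibition zone width measured after 36-40 h incubation, bacteria grown at 28°C.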
# [2] = test system: activated partial thromboplastin time (intrinsic coagulation pathway); experiment: Anticoagulant activity, clotting test APTT; parameters: species or system human; settings: for APTT, % of control: concentration 5×10^–4 g/mL, median (25-75 percentiles)
# [3] = test system: Phytophthora cactorum VKM F-985; experiment: Fungicidal activity, radial growth inhibition, P. cactorum; format: cell-based; settings: for EC50: Phytophthora cactorum, 168 h, day 7, EC50 = 50C/I, read-out: EC50, μg/mL at day 7
# In short: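 Compound solutions mixed into molten GPY agar (~60 °C) at various concentrations; plates centre-inoculated with a 5-mm mycelial block from 10-day cultures and incubated at 27 °C until control plates filled (~12 days). Inhibition is the % decrease in colony radial growth versus untreated control; EC50 = 50C/I.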
# [4] = 150 μl per well, 36-40 h, read-out: width of the inhibition zone
smiles,measurement,setting,value
"CC[N+](CC)(CC)CC(=O)N/N=C1\C(=O)N(Cc2cc(C(C)(C)C)c(O)c(C(C)(C)C)c2)c2ccc([N+](=O)[O-])cc21 [Compound 3f, 2-(2-(1-(3,5-Di-tert-butyl-4-hydroxybenzyl)-5-nitro-2-oxoindolin-3-ylidene)hydrazinyl)-N,N,N-triethyl-2-oxoethanammonium bromide]",zone of inhibition at 2000 µM,[1]; [4],7.5 mm
same,anticoagulant activity,"[2]; APTT, p<0.05",≥ 10%
same,"APTT, % of control",[2],"+10.3 (8.5-12.7) ^*, ^† % of control"
same,"Inhibition value, I (%)","[3]; C 1.29 μg/mL, age of the fungus 3 days",17%
same,"Inhibition value, I (%)","[3]; C 1.29 μg/mL, age of the fungus 5 days",11%
same,"Inhibition value, I (%)","[3]; C 1.29 μg/mL, age of the fungus 7 days",2%
same,"Inhibition value, I (%)","[3]; C 1.29 μg/mL, age of the fungus 9 days",0%
same,"Inhibition value, I (%)","[3]; C 1.29 μg/mL, age of the fungus 12 days",0%
same,"Inhibition value, I (%)","[3]; C 3.24 μg/mL, age of the fungus 3 days",33%
same,"Inhibition value, I (%)","[3]; C 3.24 μg/mL, age of the fungus 5 days",19%
same,"Inhibition value, I (%)","[3]; C 3.24 μg/mL, age of the fungus 7 days",18%
same,"Inhibition value, I (%)","[3]; C 3.24 μg/mL, age of the fungus 9 days",1%
same,"Inhibition value, I (%)","[3]; C 3.24 μg/mL, age of the fungus 12 days",0%
same,"Inhibition value, I (%)","[3]; C 6.47 μg/mL, age of the fungus 3 days",35%
same,"Inhibition value, I (%)","[3]; C 6.47 μg/mL, age of the fungus 5 days",23%
same,"Inhibition value, I (%)","[3]; C 6.47 μg/mL, age of the fungus 7 days",20%
same,"Inhibition value, I (%)","[3]; C 6.47 μg/mL, age of the fungus 9 days",8%
same,"Inhibition value, I (%)","[3]; C 6.47 μg/mL, age of the fungus 12 days",1%
same,"Inhibition value, I (%)","[3]; C 9.71 μg/mL, age of the fungus 3 days",41%
same,"Inhibition value, I (%)","[3]; C 9.71 μg/mL, age of the fungus 5 days",36%
same,"Inhibition value, I (%)","[3]; C 9.71 μg/mL, age of the fungus 7 days",32%
same,"Inhibition value, I (%)","[3]; C 9.71 μg/mL, age of the fungus 9 days",20%
same,"Inhibition value, I (%)","[3]; C 9.71 μg/mL, age of the fungus 12 days",16%
same,"Inhibition value, I (%)","[3]; C 12.94 μg/mL, age of the fungus 3 days",59%
same,"Inhibition value, I (%)","[3]; C 12.94 μg/mL, age of the fungus 5 days",55%
same,"Inhibition value, I (%)","[3]; C 12.94 μg/mL, age of the fungus 7 days",53%
same,"Inhibition value, I (%)","[3]; C 12.94 μg/mL, age of the fungus 9 days",48%
same,"Inhibition value, I (%)","[3]; C 12.94 μg/mL, age of the fungus 12 days",30%
same,EC50,[3],8.99 µg/mL
"CC[N+](CC)(CC)CC(=O)N/N=C1\C(=O)N(Cc2cc(C(C)(C)C)c(O)c(C(C)(C)C)c2)c2c(Br)cc(Cl)cc21 [Compound 3g, 2-(2-(1-(3,5-Di-tert-butyl-4-hydroxybenzyl)-5-chloro-7-bromo-2-oxoindolin-3-ylidene)hydrazinyl)-N,N,N-triethyl-2-oxoethanammonium bromide]",zone of inhibition at 2000 µM,[1]; [4],8 mm
same,zone of inhibition at 2000 µM,"[1]; read-out: Inhibition zone width (mm), not less",≥ 8 mm
same,"APTT, % of control",[2],"+8.6 (6.1-10.9) ^*, ^† % of control"
same,"Inhibition value, I (%)","[3]; C 1.43 μg/mL, age of the fungus 3 days",30%
same,"Inhibition value, I (%)","[3]; C 1.43 μg/mL, age of the fungus 5 days",29%
same,"Inhibition value, I (%)","[3]; C 1.43 μg/mL, age of the fungus 7 days",15%
same,"Inhibition value, I (%)","[3]; C 1.43 μg/mL, age of the fungus 9 days",1%
same,"Inhibition value, I (%)","[3]; C 1.43 μg/mL, age of the fungus 12 days",0%
same,"Inhibition value, I (%)","[3]; C 3.58 μg/mL, age of the fungus 3 days",38%
same,"Inhibition value, I (%)","[3]; C 3.58 μg/mL, age of the fungus 5 days",29%
same,"Inhibition value, I (%)","[3]; C 3.58 μg/mL, age of the fungus 7 days",22%
same,"Inhibition value, I (%)","[3]; C 3.58 μg/mL, age of the fungus 9 days",5%
same,"Inhibition value, I (%)","[3]; C 3.58 μg/mL, age of the fungus 12 days",0%
same,"Inhibition value, I (%)","[3]; C 7.15 μg/mL, age of the fungus 3 days",40%
same,"Inhibition value, I (%)","[3]; C 7.15 μg/mL, age of the fungus 5 days",33%
same,"Inhibition value, I (%)","[3]; C 7.15 μg/mL, age of the fungus 7 days",26%
same,"Inhibition value, I (%)","[3]; C 7.15 μg/mL, age of the fungus 9 days",14%
same,"Inhibition value, I (%)","[3]; C 7.15 μg/mL, age of the fungus 12 days",11%
same,"Inhibition value, I (%)","[3]; C 10.73 μg/mL, age of the fungus 3 days",48%
same,"Inhibition value, I (%)","[3]; C 10.73 μg/mL, age of the fungus 5 days",43%
same,"Inhibition value, I (%)","[3]; C 10.73 μg/mL, age of the fungus 7 days",41%
same,"Inhibition value, I (%)","[3]; C 10.73 μg/mL, age of the fungus 9 days",31%
same,"Inhibition value, I (%)","[3]; C 10.73 μg/mL, age of the fungus 12 days",26%
same,"Inhibition value, I (%)","[3]; C 14.30 μg/mL, age of the fungus 3 days",51%
same,"Inhibition value, I (%)","[3]; C 14.30 μg/mL, age of the fungus 5 days",48%
same,"Inhibition value, I (%)","[3]; C 14.30 μg/mL, age of the fungus 7 days",46%
same,"Inhibition value, I (%)","[3]; C 14.30 μg/mL, age of the fungus 9 days",41%
same,"Inhibition value, I (%)","[3]; C 14.30 μg/mL, age of the fungus 12 days",28%
same,EC50,[3],4.77 µg/mL
